Experimental data reported in US9994558B2, “Multicyclic compounds and methods of using same” (Karyopharm Therapeutics Inc., priority 2013, dated 2018).

How the values were obtained:
Type in all cases: cell-based
Z138 cells = assay: MTT cell proliferation assay, Z138 cells; details: Homo sapiens, Z-138, incubation approximately 64-72 hours
Method: (§1) The MTT cell proliferation assay was used to study the cytotoxic properties of the compounds. The assay was performed according to the method described by Roche Molecular Biochemicals, with minor modifications. The assay is based on the cleavage of the tetrazolium salt, MTT, in the presence of an electron-coupling reagent. The water-insoluble formazan salt produced must be solubilized in an additional step. Cells grown in a 96-well tissue culture plate were incubated with the MTT solution for approximately 4 hours. After this incubation period, a water-insoluble formazan dye formed. After solubilization, the formazan dye was quantitated using a scanning multi-well spectrophotometer (ELISA reader). […] The cells were seeded at 5,000-10,000 cells in each well of 96-well plate in 100 μL of fresh culture medium and were allowed to attach overnight. The stock solutions of the compounds were diluted in 100 μL cell culture medium to obtain eight concentrations of each test compound, ranging from 1 nM to 30 μM. […] All optical densities were measured at 490 nm using a Vmax Kinetic Microplate Reader (Molecular Devices). In most cases, the assay was performed in duplicate and the results were presented as a mean percent inhibition to the negative control±SE. The following formula was used to calculate the percent of inhibition. Inhibition (%)=(1−(ODo/OD))×100.
(§2) The compounds were tested against MS751, Z138 and 3T3 cells. The MS751 cell line is derived from a metastasis to lymph node of human cervix from a patient diagnosed with squameous cell carcinoma of the cervix. The […] cell line is a mature B-cell acute lymphoblastic leukemia cell line derived from a patient with chronic lymphocytic leukemia. 3T3 cells are standard fibroblast cells; they were originally isolated from Swiss mouse embryo tissue.

MS751 cells = assay: MTT cell proliferation assay, MS751 cells; details: Homo sapiens, incubation approximately 64-72 hours
Method: as §1, §2

3T3 cells = assay: MTT cell proliferation assay, 3T3 cells; details: Mus musculus, NIH3T3; 3T3 fibroblast cells; incubation approximately 64-72 hours
Method: as §1, §2

NHDF cells = assay: MTT cell proliferation assay, NHDF cells; details: normal human dermal fibroblast cells
Method: as §1, with “(%)=(1−(ODo/OD))×100. […]” for “(%)=(1−(ODo/OD))×100.”

Hep G2 cells = assay: MTT cell proliferation assay, Hep G2 cells; details: HepG2; human hepatocellular carcinoma cells
Method: as §1, with “(%)=(1−(ODo/OD))×100. […]” for “(%)=(1−(ODo/OD))×100.”

HEP 3B cells = assay: MTT cell proliferation assay, HEP 3B cells; details: Hep3B; human hepatocellular carcinoma cells
Method: as §1, with “(%)=(1−(ODo/OD))×100. […]” for “(%)=(1−(ODo/OD))×100.”

UCH-2 cell line = assay: MTT cell proliferation assay, UCH-2 cells; details: UCH2; chordoma cell line
Method: as §1, with “(%)=(1−(ODo/OD))×100. […]” for “(%)=(1−(ODo/OD))×100.”

SNU-182 cell line = assay: MTT cell proliferation assay, SNU-182 cells; details: human hepatoma cell line
Method: as §1, with “(%)=(1−(ODo/OD))×100. […]” for “(%)=(1−(ODo/OD))×100.”

L3.6pl cell line = assay: MTT cell proliferation assay, L3.6pl cells; details: Homo sapiens, pancreatic cancer cell line
Method: as §1, with “(%)=(1−(ODo/OD))×100. […]” for “(%)=(1−(ODo/OD))×100.”

Row | SMILES | IC50 (Z138 cells) | IC50 (MS751 cells) | IC50 (3T3 cells) | IC50 (NHDF cells) | IC50 (Hep G2 cells) | IC50 (HEP 3B cells) | IC50 (UCH-2 cell line) | IC50 (SNU-182 cell line) | IC50 (L3.6pl cell line)
1 | Nc1ccc(/C=C/C(=O)NCCOc2ccc(-c3ccc(C(=O)N4CC(F)(F)C4)cc3)cc2Cl)cn1 [Compound 318, (E)-3-(6-aminopyridin-3-yl)-N-(2-(3-chloro-4′-(3,3-difluoroazetidine-1-carbonyl)biphenyl-4-yloxy)ethyl)acrylamide] | < 100 nM | < 100 nM | 100 to 5000 nM | < 100 nM | < 100 nM | < 100 nM | > 30 µM | < 100 nM | < 100 nM
2 | Nc1ccc(/C=C/C(=O)NCCOc2ccc(-c3ccc(C(=O)N4CCC(F)(F)CC4)cn3)cc2C(F)(F)F)cn1 [Compound 355, (E)-3-(6-aminopyridin-3-yl)-N-(2-(4-(5-(4,4-difluoropiperidine-1-carbonyl)pyridin-2-yl)-2-(trifluoromethyl)phenoxy)ethyl)acrylamide] | < 100 nM | < 100 nM | 100 to 5000 nM | – | – | – | – | – | –
